Source: patent US9902752B2, “5-fluorouracil derivatives” (B. Braun Melsungen AG, priority 2012, dated 2018)
Where two headings read alike, the source gives them in different places. {19c} = modification given as compound (19c) in the publication; {25} = modification given as compound (25) in the publication; {Cy3} = Cy-3 fluorescent dye

Assays:
[1] = Bilayer insertion of lipophilic oligonucleotides (fluorescence scans); assay type: physicochemical; conditions: for incorporation into the artificial bilayer: brightness of the layers, 25 min incubation; for retention in the bilayer after perfusions: perfusions of 60 s each
Description: The incorporation of the oligonucleotides into artificial bilayers was performed at a lipid mixture of 1-palmitoyl-2-oleyl-sn-glycero-3-phosphoethanolamine (POPE) and 1-palmitoyl-2-oleyl-sn-glycero-3-phosphocholine (POPC) (8:2, w/w, 100 mg/ml of n-decane). For the preparation of the horizontal bilayers, planar slides (Ionovation GmbH, D-Osnabrück) were used. These slides contain chambers for cis- and trans compartments as well as electrode access (see FIG. 1). The main body of the slides contains of PTFE foil (thickness, 25 μm) with an aperture of ˜100 μm diameter. This foil separates the chamber into the cis- and trans compartments which are only connected by the aperture. After filling of the chamber with buffer (250 mM KCl, 10 mM MOPS/TRIS, pH 7), the cis- and trans compartments were linked with Ag/AgCl electrodes—embedded in agarose/3 M KCl). Then, a soln. of the POPC/POPE lipid mixture (0.2 μl) is applied onto the aperture of the PTFE foil using a Hamilton syringe (Hamilton, CH-Bonaduz). A small Faraday cage shields the bilayer and the electrodes from HF-electrical noise. Next, a bilayer is made-up automatically using a perfusion system (Bilayer Explorer V01, Ionovation GmbH, D-Osnabrück). The formation of a stable bilayer was monitored both, optically using a laser scanning microscope (Insight Cell 3D, Evotec Technologies GmbH, D-Hamburg) as well as electrically by capacity measurements. When a stable bilayer had been obtained (capacity, […]), the corresponding oligonucleotide soln. (50 nM, 4 μl) was injected into the cis compartment of the chip. During an incubation time of 25 min the intactness of the bilayer was electro-physiologically controlled using a headstage EPC 10 USB with a patch clamp amplifier (software: Patchmaster, HEKA Elektronik Dr. Schulze GmbH, D-Lambrecht). The optical pictures of fluorescence fluctuations were obtained with a confocal laser scanning microscope (Insight Cell 3D, Evotec Technologies GmbH, D-Hamburg), equipped with a He—Ne laser (543 nm), a 40× water-immersion objective (UApo 340, 40×, NA=1.15, Olympus, 3-Tokyo), and an Avalanche photodiode detector (SPCM-AQR-13-FC, Perkin-Elmer Optoelectronics, Fremont, USA). Fluorescence irradiation was obtained with a laser power of 200±5 μW. 2D and 3D scans were performed by scanning the confocal spot in XY direction with a rotating beam scanner and movement of the objective in Z direction. The movement in both directions was piezo controlled which allows a nano-meter precise positioning. For the 2D pictures (Z-scans, FIGS. 2 and 3) the confocal plane was moved in 100 nm steps. […]

[2] = Free diffusion times of oligonucleotides (without bilayer); assay type: physicochemical; conditions: diluted 50 nM oligomer solution
Description: From the fluorescence signals of single molecules which pass the excitation volume, the diffusion constants can be calculated. In order to determine the diffusion times of the fluorescent oligonucleotides within and near the bilayer, they were measured at five different positions above, below and within the layer. At each point five measurements for 30 s, each, were taken. In summary, each measuring protocol was as follows: (i) a reference scan of the stable (empty) bilayer; (ii) addition of the sample with 25 min of incubation, followed by a scan series; (iii) additional scan series, each after a 1., 2., and 3. perfusion (60 s, each).
The diffusion times (μs) of 41 and 42 were measured, both without and in the presence of an artificial bilayer. For the determination of the free diffusion times the corresponding oligomer solution (50 nM) was diluted so that in the confocal measuring volume (˜10^−15 l) only one fluorescent molecule was present. Each measurement was performed ten-fold for 30 s, each. In order to determine the diffusion times of the lipophilized oligonucleotides (41, 42) in the presence of a bilayer five measuring positions above, beneath and in the bilayer were chosen. This was necessary because the bilayer is floating within certain limits, which makes it difficult to target it most exactly (FIG. 5, measuring points 1-5). […]

[3] = Diffusion times of oligonucleotides in the presence of a lipid bilayer; assay type: physicochemical
Description: The incorporation of the oligonucleotides into artificial bilayers was performed at a lipid mixture of 1-palmitoyl-2-oleyl-sn-glycero-3-phosphoethanolamine (POPE) and 1-palmitoyl-2-oleyl-sn-glycero-3-phosphocholine (POPC) (8:2, w/w, 100 mg/ml of n-decane). For the preparation of the horizontal bilayers, planar slides (Ionovation GmbH, D-Osnabrück) were used. These slides contain chambers for cis- and trans compartments as well as electrode access (see FIG. 1). The main body of the slides contains of PTFE foil (thickness, 25 μm) with an aperture of ˜100 μm diameter. This foil separates the chamber into the cis- and trans compartments which are only connected by the aperture. After filling of the chamber with buffer (250 mM KCl, 10 mM MOPS/TRIS, pH 7), the cis- and trans compartments were linked with Ag/AgCl electrodes—embedded in agarose/3 M KCl). Then, a soln. of the POPC/POPE lipid mixture (0.2 μl) is applied onto the aperture of the PTFE foil using a Hamilton syringe (Hamilton, CH-Bonaduz). […] The formation of a stable bilayer was monitored both, optically using a laser scanning microscope (Insight Cell 3D, Evotec Technologies GmbH, D-Hamburg) as well as electrically by capacity measurements. […] The optical pictures of fluorescence fluctuations were obtained with a confocal laser scanning microscope (Insight Cell 3D, Evotec Technologies GmbH, D-Hamburg), equipped with a He—Ne laser (543 nm), a 40× water-immersion objective (UApo 340, 40×, NA=1.15, Olympus, 3-Tokyo), and an Avalanche photodiode detector (SPCM-AQR-13-FC, Perkin-Elmer Optoelectronics, Fremont, USA). Fluorescence irradiation was obtained with a laser power of 200±5 μW. […]
From the fluorescence signals of single molecules which pass the excitation volume, the diffusion constants can be calculated. In order to determine the diffusion times of the fluorescent oligonucleotides within and near the bilayer, they were measured at five different positions above, below and within the layer. […]
The diffusion times (μs) of 41 and 42 were measured, both without and in the presence of an artificial bilayer. […]

[4] = Lipophilicity as chromatographic mobility, RP-18 HPLC retention time; assay type: physicochemical; conditions: MeCN/0.1 M Et3NH+OAc− (35:65, v/v, pH 7.0)
Description: RP-18 HPLC was carried out on a 250×4 mm RP-18 column (Merck, Germany) on a Merck-Hitachi HPLC apparatus with one pump (Model 655A-12) connected with a proportioning valve, a variable wavelength monitor (Model 655 A), a controller (Model L-5000), and an integrator (Model D-2000). Solvent: MeCN/0.1 M Et3NH^+OAc^− (35:65, v/v, pH 7.0).
The lipophilicity of various 5-fluorouridine derivatives has been studied since the lipophilicity has inter alia an influence on the incorporation into oligo(2′-deoxynucleotides). The lipophilicity of the novel hydrophobic nucleoside derivatives has been studied in different by two ways: (i) log P values of the compounds were calculated (Table 4) and compared with those of the unmodified nucleoside 1a, (ii) the chromatographic mobilities of the compounds were measured in terms of retention times (tR in min) by RP-18 HPLC.

[5] = pKBH+ value of the nucleoside; assay type: physicochemical
[6] = 1N aq. HCl/MeCN, 1:1 (v/v); cited from earlier work
[7] = test system: HT-29 (human colon carcinoma) cell line; test: Viability/survival of HT-29 cells (PrestoBlue); assay type: cell-based; conditions: HT-29, 10-80 μM, 24, 48 or 72 h; vs comparative compounds, 5-fluorouridine and 5-fluorouracil
Description: In vitro experiments were performed using HT-29 (human colon carcinoma) cell line (DSMZ, GmbH, Braunschweig, Germany). The cells were cultured in 90% RPMI 1640 supplemented with 10% fetal bovine serum (FBS), 100 U/ml penicillin, 0.1 mg/ml streptomycin. Cells were maintained at 37° C. in a humidified atmosphere of 5% CO2 and 95% air; the medium was changed every 48 h.
1×10^4 human HT-29 in 100 μl medium/well were seeded in 96-well plates (BD Falcon™, Becton Dickinson GmbH, Heidelberg, Germany). After 24 h, the medium was changed and different concentrations of 5-fluorouracil, 5-fluorouridin and 5-fluorouridin derivative molecules (10, 20, 40 or 80 μM) were tested. After 24, 48 or 72 h incubation, viability/survival was measured using PrestoBlue™ reagent (Invitrogen-Life Technologies GmbH, Darmstadt, Germany). PrestoBlue™ reagent is more sensible than alamarBlue®, which is a redox indicator of enzyme activity widely used in whole organism screening for viability/cytotoxicity (1-6). PrestoBlue™ was directly added to the cells into the culture medium at a final concentration of 10%. Thereafter the plates were returned to the incubator. 30 min, 1 h, 2 h, 3 h and 4 h after addition of PrestoBlue™ the optical density (OD) was measured at 570 nm and 600 nm (as reference) with a SUNRISE ELISA-reader (Tecan, Salzburg, Austria). […]

[8] = cited from earlier work
[9] = measuring point 3, after 1. perfusion

Compound: 5′-d[(19c)-(Cy-3)-TAG GTC AAT ACT]. (DNA TAGGTCAATACT; DNA, 5' {19c}-{Cy3}, backbone not given here) [Oligomer 42]
- incorporation into the artificial bilayer [1]: better inserted
- retention in the bilayer after perfusions [1]: do not lead to a significant removal
- Free diffusion time [2]: 390.39 ± 249.05 μs
- Diffusion time in the presence of a bilayer [3, 9]: 75952 ± 8201, after 1 perfusion μs
- Diffusion time in the presence of a bilayer ([3]; measuring point 3, after 3. perfusion): 19891 ± 3266, after 3. perfusion μs

Compound: 5′-d[(25)-(Cy-3)-TAG GTC AAT ACT] (DNA TAGGTCAATACT; DNA, 5' {25}-{Cy3}, backbone not given here) [Oligomer 41]
- incorporation into the artificial bilayer [1]: successfully incorporated
- retention in the bilayer after perfusions [1]: brightness of the layer decreases after two perfusions
- Free diffusion time [2]: 279.67 ± 141.08 μs
- Diffusion time in the presence of a bilayer [3, 9]: 33547 ± 16751, after 1. perfusion μs

Compound: O=c1[nH]c(=O)n([C@@H]2O[C@H](CO)[C@@H](O)[C@H]2O)cc1F [Compound 1a, 5-Fluorouridine, reference compound]
- RP-18 HPLC tR [4]: 1 min
- pKBH+ [5]: 8.0±0.1

Compound: CC1(C)O[C@@H]2[C@H](O1)[C@@H](CO)O[C@H]2n1cc(F)c(=O)[nH]c1=O [Compound 19a, 5-Fluoro-1-((3aR,4R,6R,6aR)-6-(hydroxymethyl)-2,2-dimethyltetrahydrofuro[3,4-d][1,3]dioxol-4-yl)pyrimidine-2,4(1H,3H)-dione]
- melting point: 196 to 197 °C

Compound: CCCC1(CCC)OC2[C@@H](O1)[C@@H](CO)O[C@H]2n1cc(F)c(=O)[nH]c1=O (some centres unmarked) [Compound 19b, 5-Fluoro-2,3′-O-(1-propylbutylidene)uridine]
- acidic stability at the ketal group, T [6]: 130 min

Compound: CCCCCCCCCC1(CCCCCCCCC)O[C@@H]2[C@H](O1)[C@@H](CO)O[C@H]2n1cc(F)c(=O)[nH]c1=O [Compound 19c, 5-Fluoro-1-((3aR,4R,6R,6aR)-6-(hydroxymethyl)-2,2-dinonyltetrahydrofuro[3,4-d][1,3]dioxol-4-yl)pyrimidine-2,4(1H,3H)-dione]
- RP-18 HPLC tR [4]: >600 min

Compound: CC(C)=CCC/C(C)=C/CC/C(C)=C/Cn1c(=O)c(F)cn([C@@H]2O[C@H](CO)[C@@H](O)[C@H]2O)c1=O [Compound 23, 1-((2R,3R,4S,5R)-3,4-dihydroxy-5-(hydroxymethyl)tetrahydrofuran-2-yl)-5-fluoro-3-((2E,6E)-3,7,11-trimethyldodeca-2,6,10-trien-1-yl)pyrimidine-2,4(1H,3H)-dione]
- RP-18 HPLC tR [4]: 27 min

Compound: CC(C)=CCC/C(C)=C/CC/C(C)=C/Cn1c(=O)c(F)cn([C@@H]2O[C@H](CO)[C@H]3OC(C)(C)O[C@H]32)c1=O [Compound 24, 5-Fluoro-1-((3aR,4R,6R,6aR)-6-(hydroxymethyl)-2,2-dimethyltetrahydrofuro-[3,4-d][1,3]dioxol-4-yl)-3-((2E,6E)-3,7,11-trimethyldodeca-2,6,10-trien-1-yl)pyrimidine-2,4(1H,3H)-dione]
- RP-18 HPLC tR [4]: 24 min

Compound: CCCC1(CCC)OC2C(O1)[C@@H](CO)O[C@H]2n1cc(F)c(=O)n(C/C=C(\C)CC/C=C(\C)CCC=C(C)C)c1=O (stereo partly drawn) [Compound 25, 5-Fluoro-1-((3aR,4R,6R,6aR)-6-(hydroxymethyl)-2,2-dipropyitetrahydrofuro-[3,4-d][1,3]dioxol-4-yl)-3-((2E,6E)-3,7,11-trimethyldodeca-2,6,10-trien-1-yl)pyrimidine-2,4(1H,3H)-dione]
- RP-18 HPLC tR [4]: 87 min

Compound: CC(C)=CCC/C(C)=C/CC/C(C)=C/Cn1c(=O)c(F)cn([C@@H]2O[C@H](CO)C3OC4(CCCCCCCCCCC4)OC32)c1=O (some centres unmarked) [Compound 31a, 2′,3′-O-Cyclododecane-1,1-diyl-5-fluoro-3-[(2E,6E)-3,7,11-trimethyldodeca-2,6,10-trien-1-yl]uridine]
- activity against carcinoma cells [7]: significant higher activity

Compound: O=c1[nH]cc(F)c(=O)[nH]1 [fluorouracil, 5-fluorouracil]
- half life ([8]; with uracil (UFT, DPD inhibition)): 10 to 14 h
- half life ([8]; without uracil): 0.167 to 0.5 h
